Our source for the IC50 values is ChEMBL document CHEMBL1255450, “Detection of E119V and E119I mutations in influenza A (H3N2) viruses isolated from an immunocompromised patient: challenges in diagnosis of oseltamivir resistance” (Antimicrob Agents Chemother, 2010).

Holding throughout (assay type): functional, organism-based, Influenza A virus (A/Texas/12/2007(H3N2))
Details in all cases: mdck

Assay [1] relates to Influenza A virus.
Assay [2] deals with Influenza A virus. This is another data set of the same source.
Assay [3] concerns Influenza A virus. The source holds these as a separate data set.
Assay [4] has as its system Influenza A virus. The source holds these as a separate data set.
Assay [5] deals with Influenza A virus. The source holds these as a separate data set.
Assay [6] has as its system Influenza A virus. This is another data set of the same source.
For assay [7], the system named is Influenza A virus. This is another data set of the same source.

On to `CCC(CC)[C@H](NC(C)=O)[C@@H]1[C@H](O)[C@@H](C(=O)O)C[C@H]1NC(=N)N` [PERAMIVIR ANHYDROUS], for which the IC50 in assay [1] (read-out: IC50) was 33.6 nM; in assay [2] it was 0.43 nM; in assay [3], 214 nM; in assay [4] it was 1.47 nM; in assay [5], 0.9 nM; in assay [6], 0.51 nM.
In the case of `CCOC(=O)C1=C[C@@H](OC(CC)CC)[C@H](NC(C)=O)[C@@H](N)C1` [OSELTAMIVIR], the IC50 in assay [1] turned out to be 154 nM; in assay [2], 5.49 nM; in assay [3], 431 nM; in assay [4] it was 246 nM; in assay [5], 33.2 nM; in assay [6] it was 8.06 nM. In assay [7], this compound returned an IC50 of 9.18 nM.
For `C/C=C\[C@@H]1C[C@H](C(=O)O)N[C@H]1[C@@H](NC(C)=O)[C@](C)(CCC)OC`, the 50% inhibitory concentration (IC50) in assay [1] (read-out: IC50) is 3 nM; in assay [2] it was 1.25 nM; in assay [3], 23.9 nM; in assay [4] it was 5.45 nM; in assay [5], 4.96 nM; in assay [6] it was 1.35 nM.
Turning to `CC(=O)N[C@H]1[C@H]([C@H](O)[C@H](O)CO)OC(C(=O)O)=C[C@@H]1NC(=N)N` [ZANAMIVIR], the IC50 was determined as 3.8 nM in assay [1] (read-out: IC50), 18.6 nM in assay [3], 12.7 nM in assay [5] and 1.54 nM in assay [6].

The IC50 is the concentration needed to halve the response being measured.
